Reference: patent publication US10485235B2, “Aryloxypyrimidinyl ethers as herbicides” (FMC Corporation, priority 2015, dated 2019)

Tests used:
[1] = tested on: ragweed (common ragweed, Ambrosia elatior); experiment: Test A preemergence, ragweed; format: in vivo; details: Ambrosia artemisiifolia, pre-emergence, 240 h, Preemergence, 0 to 100 scale (0 no effect, 100 complete control), read-out: Plant response rating, Ragweed; for pest or weed control at 31 g/ha: 31 g ai/ha; for pest or weed control at 125 g/ha: 125 g ai/ha; for pest or weed control at 500 g/ha: 500 g ai/ha
Summary of the method: (§1)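 Plants grown in pots of loam blended with sand were treated either before emergence, via directed soil spray, or after emergence at the one- to two-leaf stage. Following about 10 days in the greenhouse, each treatment was visually compared with untreated controls and rated from 0 (no effect) to 100 (complete control).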

[2] = tested on: barnyardgrass (Echinochloa crus-galli); experiment: Test A postemergence, barnyardgrass; format: in vivo; details: Echinochloa crus-galli, post-emergence, 240 h, postemergence, 0 to 100 scale, 0 is no effect, 100 is complete control, approximately 10 days, read-out: Plant response rating, Barnyardgrass; for pest or weed control at 31 g/ha: 31 g ai/ha; for pest or weed control at 125 g/ha: 125 g ai/ha; for pest or weed control at 500 g/ha: 500 g ai/ha
Summary of the method: as §1

[3] = tested on: ragweed (common ragweed, Ambrosia elatior); experiment: Test A postemergence, ragweed; format: in vivo; details: Ambrosia artemisiifolia, post-emergence, 240 h, postemergence, 0 to 100 scale, 0 is no effect, 100 is complete control, approximately 10 days, read-out: Plant response rating, Ragweed; for pest or weed control at 31 g/ha: 31 g ai/ha; for pest or weed control at 125 g/ha: 125 g ai/ha; for pest or weed control at 500 g/ha: 500 g ai/ha
Summary of the method: as §1

[4] = tested on: ryegrass, Italian (Italian ryegrass, Lolium multiflorum); experiment: Test A postemergence, Italian ryegrass; format: in vivo; details: Lolium multiflorum, post-emergence, 240 h, postemergence, 0 to 100 scale, 0 is no effect, 100 is complete control, approximately 10 days, read-out: Plant response rating, Ryegrass, Italian; for pest or weed control at 31 g/ha: 31 g ai/ha; for pest or weed control at 125 g/ha: 125 g ai/ha; for pest or weed control at 500 g/ha: 500 g ai/ha
Summary of the method: as §1

[5] = tested on: blackgrass (Alopecurus myosuroides); experiment: Test A postemergence, blackgrass; format: in vivo; details: Alopecurus myosuroides, post-emergence, 240 h, postemergence, 0 to 100 scale, 0 is no effect, 100 is complete control, approximately 10 days, read-out: Plant response rating, Blackgrass; for pest or weed control at 31 g/ha: 31 g ai/ha; for pest or weed control at 125 g/ha: 125 g ai/ha; for pest or weed control at 500 g/ha: 500 g ai/ha
Summary of the method: as §1

## N#Cc1cccc(Oc2ncc(Cl)cn2)c1OCC(F)(F)F [Compound 1]
[1]
  pest or weed control at 31 g/ha: 0%
  pest or weed control at 125 g/ha: 100%
[2]
  pest or weed control at 31 g/ha: 0%
  pest or weed control at 125 g/ha: 30%
[3]
  pest or weed control at 31 g/ha: 10%
  pest or weed control at 125 g/ha: 10%
[4]
  pest or weed control at 31 g/ha: 0%
  pest or weed control at 125 g/ha: 0%
[5]
  pest or weed control at 31 g/ha: 0%
  pest or weed control at 125 g/ha: 20%

## N#Cc1cccc(Oc2ncc(F)cn2)c1OCCCC(F)(F)F [Compound 4, 3-[(5-fluoro-2-pyrimidinyl)oxy]-2-(4,4,4-trifluorobutoxy)benzonitrile]
[1]
  pest or weed control at 31 g/ha: 10%
  pest or weed control at 125 g/ha: 30%
[2]
  pest or weed control at 31 g/ha: 20%
  pest or weed control at 125 g/ha: 90%
[3]
  pest or weed control at 31 g/ha: 0%
  pest or weed control at 125 g/ha: 20%
[4]
  pest or weed control at 31 g/ha: 0%
  pest or weed control at 125 g/ha: 40%
[5]
  pest or weed control at 31 g/ha: 40%
  pest or weed control at 125 g/ha: 90%
other
  melting point: 70 to 74 °C

## N#Cc1cccc(Oc2ncc(Cl)cn2)c1OCCCC(F)(F)F [Compound 5, 3-[(5-chloro-2-pyrimidinyl)oxy]-2-(4,4,4-trifluorobutoxy)benzonitrile]
[1]
  pest or weed control at 31 g/ha: 10%
  pest or weed control at 125 g/ha: 10%
[2]
  pest or weed control at 31 g/ha: 70%
  pest or weed control at 125 g/ha: 100%
[3]
  pest or weed control at 31 g/ha: 10%
  pest or weed control at 125 g/ha: 30%
[4]
  pest or weed control at 31 g/ha: 20%
  pest or weed control at 125 g/ha: 40%
[5]
  pest or weed control at 31 g/ha: 30%
  pest or weed control at 125 g/ha: 90%
other
  melting point: 51 to 54 °C

## N#Cc1cccc(Oc2ncc(Cl)cn2)c1OC/C=C/C(F)(F)F [Compound 8, 3-[(5-chloro-2-pyrimidinyl)oxy]-2-[[(2E)-4,4,4-trifluoro-2-buten-1-yl]oxy]benzonitrile]
[1]
  pest or weed control at 31 g/ha: 0%
  pest or weed control at 125 g/ha: 0%
[2]
  pest or weed control at 31 g/ha: 20%
  pest or weed control at 125 g/ha: 60%
[3]
  pest or weed control at 31 g/ha: 0%
  pest or weed control at 125 g/ha: 10%
[4]
  pest or weed control at 31 g/ha: 10%
  pest or weed control at 125 g/ha: 60%
[5]
  pest or weed control at 31 g/ha: 20%
  pest or weed control at 125 g/ha: 40%
other
  melting point: 102 to 106 °C

## N#Cc1cccc(Oc2ncc(Cl)cn2)c1OCC(F)(F)C(F)(F)F [Compound 10, 3-[(5-chloro-2-pyrimidinyl)oxy]-2-(2,2,3,3,3-pentafluoropropoxy)benzonitrile]
[1]
  pest or weed control at 125 g/ha: 20%
  pest or weed control at 500 g/ha: 10%
[2]
  pest or weed control at 125 g/ha: 90%
  pest or weed control at 500 g/ha: 100%
[3]
  pest or weed control at 125 g/ha: 0%
  pest or weed control at 500 g/ha: 50%
[4]
  pest or weed control at 125 g/ha: 30%
  pest or weed control at 500 g/ha: 90%
[5]
  pest or weed control at 125 g/ha: 90%
  pest or weed control at 500 g/ha: 100%

## CCCCOc1c(Br)cccc1Oc1ncc(Cl)cn1 [Compound 13, 2-[3-bromo-2-(butoxy)phenoxy]-5-chloropyrimidine]
[1]
  pest or weed control at 125 g/ha: 0%
  pest or weed control at 500 g/ha: 10%
[2]
  pest or weed control at 125 g/ha: 90%
  pest or weed control at 500 g/ha: 100%
[3]
  pest or weed control at 125 g/ha: 0%
  pest or weed control at 500 g/ha: 10%
[4]
  pest or weed control at 125 g/ha: 20%
  pest or weed control at 500 g/ha: 90%
[5]
  pest or weed control at 125 g/ha: 50%
  pest or weed control at 500 g/ha: 100%

## FC(F)C(F)(F)COc1c(Br)cccc1Oc1ncc(Cl)cn1 [Compound 18, 2-[3-bromo-2-(2,2,3,3-tetrafluoropropoxy)phenoxy]-5-chloropyrimidine]
[1]
  pest or weed control at 125 g/ha: 0%
  pest or weed control at 500 g/ha: 10%
[2]
  pest or weed control at 125 g/ha: 30%
  pest or weed control at 500 g/ha: 100%
[3]
  pest or weed control at 125 g/ha: 0%
  pest or weed control at 500 g/ha: 20%
[4]
  pest or weed control at 125 g/ha: 0%
  pest or weed control at 500 g/ha: 60%
[5]
  pest or weed control at 125 g/ha: 20%
  pest or weed control at 500 g/ha: 80%

## N#Cc1cccc(Oc2ncc(Cl)cn2)c1OCCC(F)(F)F [Compound 23, 3-[(5-chloro-2-pyrimidinyl)oxy]-2-(3,3,3-trifluoropropoxy)benzonitrile]
[1]
  pest or weed control at 31 g/ha: 0%
  pest or weed control at 125 g/ha: 90%
[2]
  pest or weed control at 31 g/ha: 50%
  pest or weed control at 125 g/ha: 90%
[3]
  pest or weed control at 31 g/ha: 0%
  pest or weed control at 125 g/ha: 30%
[4]
  pest or weed control at 31 g/ha: 20%
  pest or weed control at 125 g/ha: 40%
[5]
  pest or weed control at 31 g/ha: 20%
  pest or weed control at 125 g/ha: 70%

## Fc1cccc(Oc2ncc(Cl)cn2)c1OCC(F)(F)F [Compound 28]
[1]
  pest or weed control at 125 g/ha: 0%
  pest or weed control at 500 g/ha: 0%
[2]
  pest or weed control at 125 g/ha: 0%
  pest or weed control at 500 g/ha: 20%
[3]
  pest or weed control at 125 g/ha: 0%
  pest or weed control at 500 g/ha: 0%
[4]
  pest or weed control at 125 g/ha: 0%
  pest or weed control at 500 g/ha: 0%
[5]
  pest or weed control at 125 g/ha: 0%
  pest or weed control at 500 g/ha: 20%

## CCCCOc1c(C#N)cccc1Oc1ncc(Cl)cn1 [Compound 35, 2-butoxy-3-[(5-chloro-2-pyrimidinyl)oxy]benzonitrile]
[1]
  pest or weed control at 125 g/ha: 10%
  pest or weed control at 500 g/ha: 30%
[2]
  pest or weed control at 125 g/ha: 80%
  pest or weed control at 500 g/ha: 100%
[3]
  pest or weed control at 125 g/ha: 10%
  pest or weed control at 500 g/ha: 20%
[4]
  pest or weed control at 125 g/ha: 40%
  pest or weed control at 500 g/ha: 80%
[5]
  pest or weed control at 125 g/ha: 70%
  pest or weed control at 500 g/ha: 90%

## N#Cc1cccc(Oc2ncc(F)cn2)c1OCC(F)(F)F [Compound 41]
[1]
  pest or weed control at 31 g/ha: 0%
  pest or weed control at 125 g/ha: 20%
[2]
  pest or weed control at 31 g/ha: 0%
  pest or weed control at 125 g/ha: 0%
[3]
  pest or weed control at 31 g/ha: 10%
  pest or weed control at 125 g/ha: 10%
[4]
  pest or weed control at 31 g/ha: 0%
  pest or weed control at 125 g/ha: 10%
[5]
  pest or weed control at 31 g/ha: 0%
  pest or weed control at 125 g/ha: 10%
other
  melting point: 58 to 63 °C

## FC(F)(F)COc1c(Cl)cccc1Oc1ncc(Cl)cn1 [Compound 42]
[1]
  pest or weed control at 31 g/ha: 0%
  pest or weed control at 125 g/ha: 0%
[2]
  pest or weed control at 31 g/ha: 0%
  pest or weed control at 125 g/ha: 10%
[3]
  pest or weed control at 31 g/ha: 0%
  pest or weed control at 125 g/ha: 0%
[4]
  pest or weed control at 31 g/ha: 0%
  pest or weed control at 125 g/ha: 0%
[5]
  pest or weed control at 31 g/ha: 0%
  pest or weed control at 125 g/ha: 10%

## Cc1cccc(Oc2ncc(Cl)cn2)c1OCC(F)(F)F [Compound 63]
[1]
  pest or weed control at 31 g/ha: 0%
  pest or weed control at 125 g/ha: 0%
[2]
  pest or weed control at 31 g/ha: 0%
  pest or weed control at 125 g/ha: 0%
[3]
  pest or weed control at 31 g/ha: 0%
  pest or weed control at 125 g/ha: 0%
[4]
  pest or weed control at 31 g/ha: 0%
  pest or weed control at 125 g/ha: 0%
[5]
  pest or weed control at 31 g/ha: 0%
  pest or weed control at 125 g/ha: 0%

## FC(F)(F)COc1c(I)cccc1Oc1ncc(Cl)cn1 [Compound 65]
[1]
  pest or weed control at 31 g/ha: 0%
  pest or weed control at 125 g/ha: 0%
[2]
  pest or weed control at 31 g/ha: 0%
  pest or weed control at 125 g/ha: 60%
[3]
  pest or weed control at 31 g/ha: 0%
  pest or weed control at 125 g/ha: 0%
[4]
  pest or weed control at 31 g/ha: 0%
  pest or weed control at 125 g/ha: 10%
[5]
  pest or weed control at 31 g/ha: 0%
  pest or weed control at 125 g/ha: 30%
other
  melting point: 87 to 90 °C
